Melting point data for 86 compounds are collected here from a melting point compilation (Tetko et al.).

As usually defined, the melting point is the temperature, or range, at which the solid turns liquid. For the compound `O=C(O)CCNS(=O)(=O)c1cccc([N+](=O)[O-])c1`, the melting point was 134 to 136 °C. The compound `CC(C)(C)CCN1CCNCC1` returned a melting point of 119 to 122 °C. In turn, `COC(=O)c1cc(=O)c2ccccc2[nH]1` displayed a melting point of 223 to 225 °C. Regarding `Cc1cc(C(=O)O)sc1-c1ccc(F)cc1`, the melting point fell in the range of 206 to 208 °C. As to `Nc1ccc(C(=O)NC2CCCC2)cc1`, the melting point is 141 to 143 °C. The figure for `COC(=O)c1cc2ccccc2c(Cl)n1` is 110 to 112 °C.

As for `O=[N+]([O-])c1cc(S(=O)(=O)Cl)c(Br)cc1F`, the melting point lay in the range of 80 to 82 °C. For the compound `NC(=O)CNCc1ccccc1`, the melting point was in the range of 90 to 92 °C. As for `COc1ncc(F)c(O)n1`, the melting point is 195 to 197 °C. `CC(=O)c1ccc(NC(=O)NC2CC2)cc1` yielded a melting point of 161 to 163 °C.

In turn, `N#CCNC(=O)c1ccc(Br)cc1` yielded a melting point of 170 to 172 °C.

For `CC(Oc1ccc(Br)cc1)C(=O)O` (stereo unspecified), the melting point was in the range of 118 to 120 °C. Next, `OC(c1cccnc1)C(F)(F)F` (stereo unspecified): 64 to 66 °C; `Cc1cn(CC(=O)O)c2ccccc12`: 175 to 177 °C. The compound `N#Cc1ccc(C(=O)NN)cc1` yielded a melting point of 195 to 197 °C. In turn, `Cc1ccc(C(=O)CCC(=O)O)cc1C` displayed a melting point of 127 to 129 °C.

`Nc1nc(-c2cc(Br)cs2)cs1` yielded a melting point of 149 to 151 °C. Turning to `CC(CC(=O)O)NC(=O)OCc1ccccc1` (stereo unspecified), the melting point fell in the range of 129 to 131 °C.

Take `Cc1cc(I)ccc1[N+](=O)[O-]`: the melting point fell in the range of 79 to 81 °C. Take `CS(=O)(=O)Cc1cccc(N)c1`: the melting point lay within 121 to 123 °C. In turn, `CC(C)(C)OC(=O)N1CCC(c2ccc(C(F)(F)F)cc2)C(N)C1` (stereo unspecified) returned a melting point of 77 to 79 °C.

In turn, `CS(=O)(=O)Cc1ccc(Cl)c(N)c1` gave a melting point of 137 to 139 °C. The figure for `CCOc1cc(C(=O)O)ccc1OCC(=O)OC` is 129 to 131 °C. Next, `Cc1cc(C)n(CC(=O)O)n1`: 187 to 189 °C; `NNC(=O)Nc1cccc(Cl)c1`: 107 to 109 °C; `CC(C)(C)NC(=O)c1ccccc1N`: 124 to 125 °C.

As for `O=C(CC(=O)Nc1ccc(F)cc1)Nc1ccc(F)cc1`, the melting point is 217 to 219 °C. The figure for `O=[N+]([O-])c1ccc(CCl)c(Cl)c1` is 50 to 52 °C. As to `Cc1ccc(C)c(SCc2cccc(C(=O)O)c2)c1`, the melting point was in the range of 129 to 131 °C. As to `C=CC(=O)NC(=O)Nc1ccccc1`, the melting point was 149 to 151 °C. Regarding `CC(C)(C(O)c1ccc(Br)cc1)[N+](=O)[O-]` (stereo unspecified), the melting point was 106 to 108 °C. Next, `NC(=S)NCc1cccc(C(F)(F)F)c1`: 97 to 99 °C; `COC(=O)c1cc(N)cc(I)c1`: 79 to 81 °C; `Cc1ccc2c(CC(=O)O)coc2c1C`: 148 to 152 °C. In turn, `COc1ccc(Cl)cc1NC(=O)CC(=O)Nc1cc(Cl)ccc1OC` registered a melting point of 98 to 101 °C. The figure for `CC1=CC=CC(=C2Nc3cc(F)ccc3N2C2CC2)C1=N` is 149 to 151 °C. Regarding `O=C(O)CCCc1ccc(Cl)c(Cl)c1`, the melting point lay within 69 to 71 °C.

The compound `O=C(CCl)N1CCN(S(=O)(=O)c2ccc3c(c2)CCC3)CC1` registered a melting point of 120 to 122 °C. Regarding `COc1ccccc1CN1C(=O)C=CC1=O`, the melting point was 93 to 95 °C. Turning to `CC(Cl)C(=O)Nc1ccc(Cl)cc1` (stereo unspecified), the melting point fell in the range of 100 to 102 °C. As for `Nc1nnc(CCOc2ccccc2)o1`, the melting point is 142 to 144 °C. Turning to `Cc1c(C(=O)O)nnn1-c1cccc(Cl)c1`, the melting point fell in the range of 179 to 181 °C.

As for `O=[N+]([O-])c1cccc(F)c1S(=O)(=O)Cl`, the melting point was 89 to 91 °C. For `Cc1csc(Sc2ccc(N)cc2)n1`, the melting point was 99 to 101 °C.

Compound `O=Cc1ccc(OCC(=O)Nc2ccc(Cl)cc2)cc1` registered a melting point of 139 to 141 °C. `O=C(CCl)Nc1c(Cl)cccc1Cl`: the melting point lay in the range of 178 to 180 °C. `COC(=O)c1c(CC(C)C)csc1N`: the melting point was 66 to 68 °C. `O=C(O)c1ccc(NC(=O)C2CC2)cc1` yielded a melting point of 274 to 276 °C. Regarding `Cc1ccc([N+](=O)[O-])c2cccnc12`, the melting point is 87 to 89 °C. Compound `COc1cc(OC)c(C(=O)NO)cc1OC` yielded a melting point of 187 to 189 °C. Next, `O=C(O)C1CCN(C(=O)CCc2ccccc2)CC1`: 107 to 109 °C. Take `Cc1nnc2[nH]nc(N)c2c1C`: the melting point was 264 to 266 °C. Regarding `O=c1[nH]c(CCl)nc2scc(-c3ccc(Cl)cc3)c12`, the melting point fell in the range of 124 to 126 °C. Regarding `O=C(O)c1cccnc1SC(F)F`, the melting point was 184 to 188 °C. For the compound `O=C1CCN(C(=O)C2CC2)CC1`, the melting point was 72 to 74 °C. On to `Nc1nnc(-c2ccsc2)s1`, for which the melting point was in the range of 211 to 213 °C. Next, `N#Cc1cc(-c2ccccc2)sc1N`: 190 to 192 °C. In turn, `Cc1sc2nc(C)n(N)c(=O)c2c1C` had a melting point of 204 to 206 °C. Next, `Cc1ccc(C(C)C(O)C(=O)O)cc1` (stereo unspecified): 111 to 113 °C; `CC(C)(Sc1ccc(Br)cc1)C(=O)O`: 109 to 111 °C. Next, `CCOC(=O)c1cncnc1O`: 179 to 181 °C; `O=C(O)c1ccc(N2CCCC2)c([N+](=O)[O-])c1`: 259 to 261 °C. Next, `O=C(O)CCCOc1cccnc1`: 125 to 127 °C; `CCOc1cc2c(cc1C=O)OC(C)C2` (stereo unspecified): 74 to 78 °C. The compound `Oc1ccccc1OCc1cscn1` returned a melting point of 120 to 122 °C.

Regarding `CC(Oc1ccc(Cl)c(Cl)c1)C(=O)O` (stereo unspecified), the melting point lay within 125 to 127 °C. The figure for `O=C(O)c1cccc(S(=O)(=O)N2CCCc3ccccc32)c1` is 98 to 100 °C. In the case of `O=C(O)c1ccc(S(=O)(=O)CCO)cc1`, the melting point lay within 189 to 191 °C.

As to `O=c1[nH]cnc2c(-c3ccccc3)nsc12`, the melting point lay within 256 to 258 °C. The figure for `c1ccc(-c2cc[nH]c2)nc1` is 126 to 128 °C; for `Cc1nc(-c2nnc[nH]2)sc1C(=O)O` it is 286 to 288 °C; for `Cc1nn(C2CCS(=O)(=O)C2)c(C)c1C=O` (stereo unspecified) it is 122 to 124 °C. The figure for `CCN(CC)S(=O)(=O)c1ccc(OC(C)C)c(NC(=O)CCl)c1` is 223 to 226 °C; for `NC(=O)c1c(C2CCCCC2)csc1N` it is 164 to 166 °C. `Brc1ccc(OCC2CO2)cc1` (stereo unspecified) returned a melting point of 49 to 51 °C. Consider `CCN1N=C(c2ccccc2)CC1=O`, for which the melting point lay in the range of 140 to 142 °C. In turn, `O=C(O)c1ccc(-c2ccccc2F)o1` had a melting point of 173 to 175 °C.

`COc1ccc(C(=O)O)cc1S(=O)(=O)NCc1ccc(Cl)cc1`: the melting point lay within 230 to 232 °C. Next, `CC(=O)Cn1cnc(C)c1C`: 80 to 82 °C. `Nc1nnc(C(=O)NCc2ccccc2)[nH]1` came in with a melting point of 248 to 250 °C.

With `COC(=O)C(Cc1c[nH]c2ccccc12)NC(=O)CCl` (stereo unspecified), the melting point lay within 130 to 132 °C. The figure for `Cc1nn(CC(C)C)c(C)c1CC(=O)O` is 106 to 110 °C. The compound `Cn1cc(CC2CC(=O)NC2=O)cn1` (stereo unspecified) returned a melting point of 116 to 118 °C. In turn, `FC(F)(F)c1nc2c([nH]1)CCCC2` had a melting point of 229 to 231 °C. `COc1cc(CCl)ccc1OCc1cccc(C#N)c1`: the melting point is 95 to 97 °C.

In turn, `CCCc1ccccc1NC(N)=S` showed a melting point of 116 to 118 °C.
